pIC50: −log10 of the molar value. Active and inactive are the calls of the source. The rule behind the calls is not given here.
Key:
[1] = target: T1, Prostaglandin G/H synthase 2 (Homo sapiens) (UniProt P35354); conditions: at 10 µM
T1 sequence (whole entry): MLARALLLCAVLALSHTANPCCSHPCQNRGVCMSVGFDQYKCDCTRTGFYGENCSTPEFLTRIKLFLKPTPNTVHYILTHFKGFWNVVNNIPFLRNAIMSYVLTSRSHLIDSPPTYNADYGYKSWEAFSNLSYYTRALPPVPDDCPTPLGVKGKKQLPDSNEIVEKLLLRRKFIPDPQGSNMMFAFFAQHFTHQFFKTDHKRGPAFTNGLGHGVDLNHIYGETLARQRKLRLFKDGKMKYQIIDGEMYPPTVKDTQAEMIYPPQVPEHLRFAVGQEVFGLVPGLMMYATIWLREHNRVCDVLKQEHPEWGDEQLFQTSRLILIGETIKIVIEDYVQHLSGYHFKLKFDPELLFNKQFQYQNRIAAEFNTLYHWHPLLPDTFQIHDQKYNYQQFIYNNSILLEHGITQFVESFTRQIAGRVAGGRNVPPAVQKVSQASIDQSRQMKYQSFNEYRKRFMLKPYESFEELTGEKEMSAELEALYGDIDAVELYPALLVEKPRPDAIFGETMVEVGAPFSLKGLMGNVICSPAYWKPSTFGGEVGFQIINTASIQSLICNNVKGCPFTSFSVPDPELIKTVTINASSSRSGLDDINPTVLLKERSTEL
Description: Inhibition of human recombinant COX2 using arachidonic acid as substrate at 10 uM incubated 5 mins prior to substrate addition measured after 5 mins by HPLC analysis

[2] = Metabolic stability in Sprague-Dawley rat liver microsomes assessed as compound remaining at 10 uM after 60 mins by HPLC analysis; format: ADME; conditions: read-out: Stability
Homo sapiens [3] = species: Homo sapiens; experiment: Translocation of 5-lipoxygenase from cytosol into nuclear membrane in A23187-stimulated human polymorphonuclear leukocytes assessed as enzyme product formation at 10 uM incubated for 15 mins prior to A23187-challenge measured after 5 mins by Western blotting analysis; format: functional
[4] = target: T2, Polyunsaturated fatty acid lipoxygenase ALOX15 (Homo sapiens) (UniProt P16050); experiment: Inhibition of 15-lipoxygenase in human polymorphonuclear leukocytes using arachidonic acid as substrate assessed as remaining activity at 10 uM incubated 15 mins prior to substrate addition measured after 10 mins by HPLC analysis relative to control; format: cell-based
T2 sequence (whole entry): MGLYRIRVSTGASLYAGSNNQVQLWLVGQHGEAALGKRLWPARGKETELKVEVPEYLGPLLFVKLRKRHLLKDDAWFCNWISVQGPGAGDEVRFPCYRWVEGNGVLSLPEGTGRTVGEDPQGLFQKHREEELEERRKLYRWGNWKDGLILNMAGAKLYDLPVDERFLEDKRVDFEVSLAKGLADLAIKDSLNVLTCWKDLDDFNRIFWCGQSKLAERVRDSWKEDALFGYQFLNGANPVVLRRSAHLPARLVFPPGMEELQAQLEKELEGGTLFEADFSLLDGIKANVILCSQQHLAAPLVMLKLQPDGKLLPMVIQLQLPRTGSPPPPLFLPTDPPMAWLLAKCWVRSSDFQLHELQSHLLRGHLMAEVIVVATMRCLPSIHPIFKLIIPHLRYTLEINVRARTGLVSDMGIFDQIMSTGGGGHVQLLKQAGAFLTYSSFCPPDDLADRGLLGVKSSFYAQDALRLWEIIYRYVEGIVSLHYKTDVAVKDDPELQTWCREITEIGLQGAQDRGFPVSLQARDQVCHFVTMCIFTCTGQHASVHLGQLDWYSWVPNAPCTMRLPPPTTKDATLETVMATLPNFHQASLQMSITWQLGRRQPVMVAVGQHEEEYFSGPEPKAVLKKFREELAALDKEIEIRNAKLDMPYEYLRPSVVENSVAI

Prostaglandin E synthase = target: T3, Prostaglandin E synthase (Homo sapiens, UniProt O14684); experiment: Inhibition of mPGES-1 from human A549 cell microsomal membranes using PGH2 as substrate incubated 15 mins prior to substrate addition measured after 1 min by RP-HPLC analysis
T3 sequence (O14684 whole entry): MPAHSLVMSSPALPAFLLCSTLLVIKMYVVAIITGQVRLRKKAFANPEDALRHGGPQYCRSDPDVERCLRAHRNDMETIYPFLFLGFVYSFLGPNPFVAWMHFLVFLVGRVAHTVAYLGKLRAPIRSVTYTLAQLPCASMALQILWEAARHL

[5] = Cytotoxicity against human polymorphonuclear leukocytes at 10 uM after 1 hr by trypan blue staining
[6] = test system: Radical scavenging activity; experiment: Antioxidant activity assessed as DPPH radical scavenging activity at 10 uM after 30 mins; format: functional
[7] = (§1) Inhibition of reactive oxygen species generation in PMA-stimulated human polymorphonuclear leukocytes incubated for 15 mins prior to PMA-challenge by fluorescence assay; format: functional
Homo sapiens [8] = species: Homo sapiens; experiment: as §1; format: functional
Mus musculus = experiment: Reduction of PGE2 biosynthesis in CD-1 mouse peritonitis model at 10 mg/kg, ip administered 30 mins prior to zymosan-challenge measured after 4 hrs by RIA relative to vehicle-treated control; format: functional; conditions: CD-1, ip, route intraperitoneal
[9] = target: T4, Polyunsaturated fatty acid 5-lipoxygenase (Homo sapiens, UniProt P09917); experiment: Inhibition of 5-lipoxygenase in A23187-stimulated human polymorphonuclear leukocytes using arachidonic acid as substrate incubated 15 mins prior to substrate addition measured after 10 mins by HPLC analysis
T4 sequence (P09917 whole entry): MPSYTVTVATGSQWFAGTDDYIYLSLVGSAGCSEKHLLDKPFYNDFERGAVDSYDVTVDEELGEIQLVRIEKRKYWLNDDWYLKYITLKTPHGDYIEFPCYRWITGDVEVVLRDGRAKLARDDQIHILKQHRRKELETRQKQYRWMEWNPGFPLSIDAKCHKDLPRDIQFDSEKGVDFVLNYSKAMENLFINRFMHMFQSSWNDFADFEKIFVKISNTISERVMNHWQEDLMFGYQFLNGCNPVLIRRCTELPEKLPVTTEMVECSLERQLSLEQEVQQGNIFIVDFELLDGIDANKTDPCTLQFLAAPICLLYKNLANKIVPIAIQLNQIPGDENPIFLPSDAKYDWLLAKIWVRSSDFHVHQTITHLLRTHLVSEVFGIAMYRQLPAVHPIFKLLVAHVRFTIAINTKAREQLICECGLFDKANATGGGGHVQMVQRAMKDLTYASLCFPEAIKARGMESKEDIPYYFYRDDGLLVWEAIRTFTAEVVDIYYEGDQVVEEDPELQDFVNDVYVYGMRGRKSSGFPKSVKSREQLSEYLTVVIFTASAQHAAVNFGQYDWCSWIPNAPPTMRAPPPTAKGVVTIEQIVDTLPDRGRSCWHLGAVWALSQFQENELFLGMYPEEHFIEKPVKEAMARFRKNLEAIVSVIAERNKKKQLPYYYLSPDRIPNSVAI

inhibition [1]: 18%
remaining at 1 h, 10 µM [2]: 77%
Activity [4]: 84%
pIC50 (Prostaglandin E synthase): 6.40
pIC50 [7]: 5.10
pIC50 [9]: 6.70
SMILES: CCCCCCC(Sc1nc(Cl)cc(Nc2nc(-c3ccc4ccccc4c3)cs2)n1)C(=O)O (racemic)
Activity (Homo sapiens [3]): inactive
Activity [5]: Non-toxic
Activity [6]: inactive
inhibition (Homo sapiens [8]): Dose-dependent effect
inhibition in vivo at 10 mg/kg (Mus musculus): 46%

Source: ChEMBL document CHEMBL3091331, “Aminothiazole-featured pirinixic acid derivatives as dual 5-lipoxygenase and microsomal prostaglandin E2 synthase-1 inhibitors with improved potency and efficiency in vivo” (J Med Chem, 2013)
